Holding throughout (type): functional, organism-based
Assay [1] relates to Plasmodium falciparum. The assay is described as follows: Antimalarial activity against Plasmodium falciparum PA assessed as incorporation of [3H]hypoxanthine after 48 hrs by scintillation counter.
For assay [2], the system named is Plasmodium falciparum. Kind of assay: Antimalarial activity against Plasmodium falciparum IMT L1 assessed as incorporation of [3H]hypoxanthine after 48 hrs by scintillation counter.
The subject of assay [3] is Plasmodium falciparum. Kind of assay: Antimalarial activity against Plasmodium falciparum IMT 8425 assessed as incorporation of [3H]hypoxanthine after 48 hrs by scintillation counter.
The test system of assay [4] is Plasmodium falciparum. The assay is described as follows: Antimalarial activity against Plasmodium falciparum IMT Vol assessed as incorporation of [3H]hypoxanthine after 48 hrs by scintillation counter.
For assay [5], the system named is Plasmodium falciparum. Kind of assay: Antimalarial activity against Plasmodium falciparum IMT 9881 assessed as incorporation of [3H]hypoxanthine after 48 hrs by scintillation counter.
Assay [6] relates to Plasmodium falciparum. Kind of assay: Antimalarial activity against Plasmodium falciparum HB3 assessed as incorporation of [3H]hypoxanthine after 48 hrs by scintillation counter.
In assay [7] the test system is Plasmodium falciparum. The assay is described as follows: Antimalarial activity against Plasmodium falciparum W2 assessed as incorporation of [3H]hypoxanthine after 48 hrs by scintillation counter.
The test system of assay [8] is Plasmodium falciparum. Kind of assay: Antimalarial activity against Plasmodium falciparum IMT 10336 assessed as incorporation of [3H]hypoxanthine after 48 hrs by scintillation counter.
In assay [9] the test system is Plasmodium falciparum. Kind of assay: Antimalarial activity against Plasmodium falciparum IMT 16332 assessed as incorporation of [3H]hypoxanthine after 48 hrs by scintillation counter.
In assay [10] the test system is Plasmodium falciparum. The assay is described as follows: Antimalarial activity against Plasmodium falciparum FCM29 assessed as incorporation of [3H]hypoxanthine after 48 hrs by scintillation counter.
The test system of assay [11] is Plasmodium falciparum. Kind of assay: Antimalarial activity against Plasmodium falciparum IMT 31 assessed as incorporation of [3H]hypoxanthine after 48 hrs by scintillation counter.
The test system of assay [12] is Plasmodium falciparum. Kind of assay: Antimalarial activity against Plasmodium falciparum IMT A4 assessed as incorporation of [3H]hypoxanthine after 48 hrs by scintillation counter.
Assay [13] has as its system Plasmodium falciparum. Kind of assay: Antimalarial activity against Plasmodium falciparum D6 assessed as incorporation of [3H]hypoxanthine after 48 hrs by scintillation counter.
Assay [14] relates to Plasmodium falciparum. The assay is described as follows: Antimalarial activity against Plasmodium falciparum IMT K14 assessed as incorporation of [3H]hypoxanthine after 48 hrs by scintillation counter.
The subject of assay [15] is Plasmodium falciparum. Kind of assay: Antimalarial activity against Plasmodium falciparum 106/1 assessed as incorporation of [3H]hypoxanthine after 48 hrs by scintillation counter.
In assay [16] the test system is Plasmodium falciparum. Kind of assay: Antimalarial activity against Plasmodium falciparum FCR3 assessed as incorporation of [3H]hypoxanthine after 48 hrs by scintillation counter.
Assay [17] concerns Plasmodium falciparum. Kind of assay: Antimalarial activity against Plasmodium falciparum IMT K4 assessed as incorporation of [3H]hypoxanthine after 48 hrs by scintillation counter.
For assay [18], the system named is Plasmodium falciparum. Kind of assay: Antimalarial activity against Plasmodium falciparum IMT K2 assessed as incorporation of [3H]hypoxanthine after 48 hrs by scintillation counter.
Assay [19] relates to Plasmodium falciparum. The assay is described as follows: Antimalarial activity against Plasmodium falciparum IMT Bres assessed as incorporation of [3H]hypoxanthine after 48 hrs by scintillation counter.
In assay [20] the test system is Plasmodium falciparum. The assay is described as follows: Antimalarial activity against Plasmodium falciparum IMT 10500 assessed as incorporation of [3H]hypoxanthine after 48 hrs by scintillation counter.
In assay [21] the test system is Plasmodium falciparum. Kind of assay: Antimalarial activity against Plasmodium falciparum IMT Guy assessed as incorporation of [3H]hypoxanthine after 48 hrs by scintillation counter.
In assay [22] the test system is Plasmodium falciparum. Kind of assay: Antimalarial activity against Plasmodium falciparum 3D7 assessed as incorporation of [3H]hypoxanthine after 48 hrs by scintillation counter.

This passage reports IC50 results from ChEMBL document CHEMBL1649448, “Atorvastatin is a promising partner for antimalarial drugs in treatment of Plasmodium falciparum malaria” (Antimicrob Agents Chemother, 2009).

One may read the IC50 as the midpoint of a concentration-inhibition curve.

On to `C[C@H]1[C@@H](O)O[C@@H]2O[C@@]3(C)CC[C@H]4[C@H](C)CC[C@@H]1[C@@]24OO3` [ARTENIMOL], for which the IC50 in the assay with Plasmodium falciparum [1], with Plasmodium falciparum [2], in the assay on Plasmodium falciparum [3], with Plasmodium falciparum [4], in the assay with Plasmodium falciparum [5] and with Plasmodium falciparum [6] was 0.9 nM in each case. In addition, the IC50 in the assay on Plasmodium falciparum [7], with Plasmodium falciparum [8], with Plasmodium falciparum [9], in the assay with Plasmodium falciparum [10], in the assay on Plasmodium falciparum [11] and with Plasmodium falciparum [12] was 0.9 nM each time. The IC50 in the assay with Plasmodium falciparum [13], in the assay on Plasmodium falciparum [14], in the assay on Plasmodium falciparum [15], in the assay on Plasmodium falciparum [16], in the assay with Plasmodium falciparum [17] and in the assay with Plasmodium falciparum [18] was 0.9 nM each time. The half-inhibitory concentration (IC50) in the assay with Plasmodium falciparum [19], in the assay with Plasmodium falciparum [20] and in the assay with Plasmodium falciparum [21] was 0.9 nM throughout.
On to `O=C1C(O)=C([C@H]2CC[C@H](c3ccc(Cl)cc3)CC2)C(=O)c2ccccc21` [ATOVAQUONE], for which the IC50 in the assay with Plasmodium falciparum [1], in the assay on Plasmodium falciparum [2], in the assay on Plasmodium falciparum [3], with Plasmodium falciparum [4], in the assay on Plasmodium falciparum [22] and in the assay on Plasmodium falciparum [5] was 2.4 nM throughout. Also, the IC50 in the assay on Plasmodium falciparum [6], with Plasmodium falciparum [7], in the assay with Plasmodium falciparum [8], in the assay with Plasmodium falciparum [9], in the assay on Plasmodium falciparum [10] and in the assay with Plasmodium falciparum [11] was 2.4 nM each time. For the same compound, the IC50 in the assay on Plasmodium falciparum [12], in the assay with Plasmodium falciparum [13], in the assay with Plasmodium falciparum [14], in the assay with Plasmodium falciparum [15], in the assay with Plasmodium falciparum [16] and in the assay on Plasmodium falciparum [17] was 2.4 nM in each case. Moreover, the half-maximal inhibitory concentration (IC50) with Plasmodium falciparum [18], in the assay with Plasmodium falciparum [19], in the assay on Plasmodium falciparum [20] and in the assay on Plasmodium falciparum [21] was 2.4 nM in each case.
Turning to `CCNCc1cc(Nc2ccnc3cc(Cl)ccc23)ccc1O` [DESETHYL AMODIAQUINE], the 50% inhibitory concentration (IC50) in the assay with Plasmodium falciparum [1], in the assay with Plasmodium falciparum [2], in the assay with Plasmodium falciparum [3], in the assay with Plasmodium falciparum [4], in the assay with Plasmodium falciparum [5] and in the assay with Plasmodium falciparum [6] was 23 nM in each case. Further, the IC50 with Plasmodium falciparum [7], with Plasmodium falciparum [8], in the assay with Plasmodium falciparum [9], in the assay with Plasmodium falciparum [10], in the assay on Plasmodium falciparum [11] and with Plasmodium falciparum [12] was 23 nM throughout. In addition, the half-inhibitory concentration (IC50) with Plasmodium falciparum [13], in the assay with Plasmodium falciparum [14], with Plasmodium falciparum [15], in the assay on Plasmodium falciparum [16], with Plasmodium falciparum [17] and in the assay with Plasmodium falciparum [18] was 23 nM each time. The IC50 in the assay with Plasmodium falciparum [19], with Plasmodium falciparum [20] and in the assay on Plasmodium falciparum [21] was 23 nM each time.
Consider `CCCCN(CCCC)CC(O)c1cc(Cl)cc2c1-c1ccc(Cl)cc1/C2=C/c1ccc(Cl)cc1` (centres undefined) [LUMEFANTRINE], for which the IC50 in the assay on Plasmodium falciparum [1], in the assay on Plasmodium falciparum [2], with Plasmodium falciparum [3], in the assay on Plasmodium falciparum [4], in the assay with Plasmodium falciparum [22] and in the assay with Plasmodium falciparum [5] was 8 nM throughout. Besides, the IC50 with Plasmodium falciparum [6], in the assay with Plasmodium falciparum [7], in the assay on Plasmodium falciparum [8], in the assay on Plasmodium falciparum [9], in the assay with Plasmodium falciparum [10] and in the assay on Plasmodium falciparum [11] was 8 nM in each case. Further, the IC50 with Plasmodium falciparum [12], with Plasmodium falciparum [13], in the assay with Plasmodium falciparum [14], in the assay with Plasmodium falciparum [15], in the assay on Plasmodium falciparum [16] and in the assay on Plasmodium falciparum [17] was 8 nM in each case. Moreover, the half-maximal inhibitory concentration (IC50) in the assay on Plasmodium falciparum [18], in the assay on Plasmodium falciparum [19], with Plasmodium falciparum [20] and with Plasmodium falciparum [21] was 8 nM in each case.
`OC(c1cc(C(F)(F)F)nc2c(C(F)(F)F)cccc12)C1CCCCN1` (centres undefined) [MEFLOQUINE]: the concentration for half-maximal inhibition (IC50) in the assay on Plasmodium falciparum [1], with Plasmodium falciparum [2], with Plasmodium falciparum [3], in the assay on Plasmodium falciparum [4], in the assay on Plasmodium falciparum [22] and with Plasmodium falciparum [5] was 14 nM throughout. The IC50 in the assay on Plasmodium falciparum [6], in the assay on Plasmodium falciparum [7], with Plasmodium falciparum [8], in the assay on Plasmodium falciparum [9], in the assay on Plasmodium falciparum [10] and in the assay on Plasmodium falciparum [11] was 14 nM throughout. The IC50 in the assay on Plasmodium falciparum [12], in the assay on Plasmodium falciparum [13], with Plasmodium falciparum [14], in the assay on Plasmodium falciparum [15], with Plasmodium falciparum [16] and in the assay with Plasmodium falciparum [17] was 14 nM each time. In addition, the IC50 with Plasmodium falciparum [18], with Plasmodium falciparum [19], with Plasmodium falciparum [20] and in the assay on Plasmodium falciparum [21] was 14 nM each time.
Regarding `C=C[C@H]1CN2CC[C@H]1C[C@H]2[C@H](O)c1ccnc2ccc(OC)cc12` [QUININE], the IC50 in the assay with Plasmodium falciparum [18] was 48 nM.
